{
  "source": "patent US20240166646A1",
  "about": "“1H-PYRROLO[2,3-B]PYRIDINE DERIVATIVES AS BCL-2 INHIBITORS FOR THE TREATMENT OF NEOPLASTIC AND AUTOIMMUNE DISEASES” (Newave Pharmaceutical Inc., priority 2020, published 2024)",
  "key": {"[1]": {"system": "CLL who have 17p deletion", "conditions": "Human Phase I and II data; cited from earlier work"}, "Granta-519 xenograft": {"system": "Granta-519 xenograft", "conditions": "single agent or in combination with Bendamustine and other agents; cited from earlier work"}, "RS4; 11 xenografts": {"system": "RS4; 11 xenografts", "conditions": "single dose of 100 mg/kg; cited from earlier work"}, "[2]": {"system": "BCL-2-dependent acute lymphoblastic leukemia (ALL) cell line RS4; 11 with G101V mutation", "assay": "In vitro anti-proliferation assay (ATPlite) in RS4; 11 with G101V mutation", "type": "cell-based", "conditions": "RS4-11; about 72 hours incubation, medium with 5% FBS or 10% normal human serum, ATPlite luminescence", "procedure,_shortened": "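About 1×10^4 cells per well exposed to a compound dose range for about 72 h in medium with 5% FBS or 10% normal human serum. ATP content read by ATPlite luminescence after lysis. IC50 derived from dose-response.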"}, "DoHH2 xenograft": {"system": "DoHH2 xenograft", "conditions": "single agent or in combination with Bendamustine and other agents; cited from earlier work"}, "CLL": {"system": "CLL", "conditions": "average; read-out: average EC50, apoptosis in CLL; cited from earlier work"}, "RS4; 11 cells": {"system": "RS4; 11 cells", "conditions": "cited from earlier work"}, "Mcl-1": {"target": "Mcl-1 (Homo sapiens (Human), UniProt Q07820)", "sequence (Q07820 whole entry)": "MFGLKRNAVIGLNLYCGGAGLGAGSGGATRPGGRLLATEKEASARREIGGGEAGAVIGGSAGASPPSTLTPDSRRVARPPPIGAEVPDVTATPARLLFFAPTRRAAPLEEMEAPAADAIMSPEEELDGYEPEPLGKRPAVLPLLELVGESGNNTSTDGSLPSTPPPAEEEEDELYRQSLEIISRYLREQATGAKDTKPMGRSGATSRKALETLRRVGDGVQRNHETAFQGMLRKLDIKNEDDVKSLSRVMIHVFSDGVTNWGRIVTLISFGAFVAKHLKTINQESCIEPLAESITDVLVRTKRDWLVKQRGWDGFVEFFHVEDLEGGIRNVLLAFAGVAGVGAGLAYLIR", "conditions": "cited from earlier work"}, "[3]": {"conditions": "in vivo; cited from earlier work"}, "[4]": {"system": "xenograft models of small-cell lung cancer and acute lymphoblastic leukemia", "conditions": "oral administration, alone; cited from earlier work"}, "circulating platelets": {"system": "circulating platelets", "conditions": "clinical trial, patients; cited from earlier work"}, "Bcl-w": {"target": "Bcl-w (Homo sapiens (Human), UniProt Q92843)", "sequence (Q92843 whole entry)": "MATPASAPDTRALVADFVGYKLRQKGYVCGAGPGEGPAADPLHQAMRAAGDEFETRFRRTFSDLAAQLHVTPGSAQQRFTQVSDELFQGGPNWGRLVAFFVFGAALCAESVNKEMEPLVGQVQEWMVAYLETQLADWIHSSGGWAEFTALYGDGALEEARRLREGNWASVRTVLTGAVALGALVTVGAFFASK", "conditions": "cited from earlier work"}, "SCLC H146 cell line": {"system": "SCLC H146 cell line", "conditions": "read-out: IC50 against SCLC H146 cell line; cited from earlier work"}, "H345 xenograft": {"system": "H345 xenograft", "conditions": "100 mg/kg/day, H345 xenograft model; cited from earlier work"}, "[5]": {"conditions": "cited from earlier work"}, "established tumors": {"system": "established tumors", "conditions": "mouse, in vivo; cited from earlier work"}},
  "data": [
    {"smiles": "CC1(C)CCC(CN2CCN(c3ccc(C(=O)NS(=O)(=O)c4ccc(NCC5CCOCC5)c([N+](=O)[O-])c4)c(Oc4cnc5[nH]ccc5c4)c3)CC2)=C(c2ccc(Cl)cc2)C1", "note": "[ABT-199]", "values": [
      {"measurement": "clinical efficacy", "setting": "[1]", "result": "highly efficacious"},
      {"measurement": "xenograft growth Granta-519", "setting": "Granta-519 xenograft", "result": "inhibits xenograft growth"},
      {"measurement": "maximal tumor growth inhibition", "setting": "RS4; 11 xenografts", "result": 95, "unit": "%"},
      {"measurement": "tumor growth delay", "setting": "RS4; 11 xenografts", "result": 152, "unit": "%"},
      {"measurement": "IC50", "setting": "[2]", "result": 1200, "unit": "nM"},
      {"measurement": "xenograft growth DoHH2", "setting": "DoHH2 xenograft", "result": "inhibits xenograft growth"},
      {"measurement": "EC50", "setting": "CLL", "result": 3, "unit": "nM"},
      {"measurement": "EC50", "setting": "RS4; 11 cells", "result": 8, "unit": "nM"},
      {"measurement": "apoptosis in RS4; 11 cells", "setting": "RS4; 11 cells; cytochrome c release, caspase activation, accumulation of sub-G0/G1 DNA", "result": "induces a rapid apoptosis"},
      {"measurement": "activity to Mcl-1", "setting": "Mcl-1", "result": "no activity"}
    ]},
    {"smiles": "CC1(C)CCC(c2ccc(Cl)cc2)=C(CN2CCN(c3ccc(C(=O)NS(=O)(=O)c4ccc(N[C@H](CCN5CCOCC5)CSc5ccccc5)c(S(=O)(=O)C(F)(F)F)c4)cc3)CC2)C1", "note": "[ABT-263]", "values": [
      {"measurement": "oral bioavailability", "setting": "[3]", "result": "orally bioavailable"},
      {"measurement": "tumor regression", "setting": "[4]", "result": "complete tumor regressions"},
      {"measurement": "effect on number of circulating platelets", "setting": "circulating platelets", "result": "rapid, concentration-dependent decrease in the number of circulating platelets"},
      {"measurement": "Ki", "setting": "Bcl-w", "result": 1, "unit": "nM"},
      {"measurement": "IC50", "setting": "SCLC H146 cell line", "result": 110, "unit": "nM"},
      {"measurement": "TGI", "setting": "H345 xenograft", "result": 80, "unit": "%"},
      {"measurement": "treated tumors indicating at least a 50% reduction in tumor volume", "setting": "H345 xenograft", "result": 20, "unit": "%"}
    ]},
    {"smiles": "CN(C)CC[C@H](CSc1ccccc1)Nc1ccc(S(=O)(=O)NC(=O)c2ccc(N3CCN(Cc4ccccc4-c4ccc(Cl)cc4)CC3)cc2)cc1[N+](=O)[O-]", "note": "[ABT-737]", "values": [
      {"measurement": "oral bioavailability", "setting": "[3]", "result": "not orally bioavailable"},
      {"measurement": "aqueous solubility", "setting": "[5]", "result": "low aqueous solubility"},
      {"measurement": "efficacy in animal models", "setting": "established tumors", "result": "improves survival, causes regression of established tumors, and produces cures in a high percentage of the mice"}
    ]}
  ]
}
